From article PMC10120551, “Novel Glu-based pyrazolo[3,4-d]pyrimidine analogues: design, synthesis and biological evaluation as DHFR and TS dual inhibitors” (Journal of Enzyme Inhibition and Medicinal Chemistry, 2023)

How the values were obtained:
UACC-257 = conditions: UACC-257, Melanoma; five-dose 0.01–100 µM
SNB-19 [1] = conditions: SNB-19, CNS cancer; five-dose 0.01–100 µM
CCRF-CEM = conditions: Leukaemia, five-dose 0.01–100 µM
BT-549 = test: NCI one-dose screen (SRB); assay type: cell-based, human; conditions: BT-549, Breast cancer; 10 µM single dose
Method: (§1) The growth percentage (G%) and cell viability of the herein target compounds 6a–l, 7a,b, and 9a–c have been screened towards a full panel of 59 cancer cells at NCI’s Developmental Therapeutics Program (NCI-DTP, MD, USA)[21]. The submitted analogues were initially examined for preliminary in vitro anticancer activity using sulforhodamine B (SRB) assay at 10 µM as a single dose to evaluate cell growth and viability according to the procedure of Drug Evaluation Branch[22]^,[23].
(§2) Different types of tumours – colon, NSCLC, leukaemia, CNS, renal, breast, ovarian, melanoma, and prostate cancers – were investigated as a full panel of 59 cell lines, and the attained results are cited in Figures S1–S17 (see Supplementary Material) where the value recorded is the growth relative to that of both the negative control and zero-time number of cells in which both growth inhibition (GI%; 0–100%) and lethality (L%; 0–100%) percentages can be identified. The growth inhibition means percentages (MGI%) for the examined target analogues towards the different treated 59 cancer cells were presented in Figure 2.
(§3) The designed analogues were submitted to NCI-Chemotherapeutic Agents Repository (MD, USA) for screening on a panel of 59 cancer cell lines. All compounds were initially examined at 10 µM concentration (Single-Dose Screen), and then the most efficient analogue 6i was screened further at 0.01–100 µM (Five-Dose Screen). The screening procedures were performed according to NCI-Drug Evaluation Branch protocol using SRB protein assay, as described previously[21]^,[66]. The experimental procedures were detailed in the Supporting Information.

HOP-92 = test: NCI one-dose screen (SRB); assay type: cell-based, human; conditions: HOP-92, NSCLC; 10 µM single dose
Method: as §1, §2, §3

RXF 393 = test: NCI one-dose screen (SRB); assay type: cell-based, human; conditions: RXF 393, Renal; 10 µM single dose
Method: as §1, §2, §3

SK-MEL-28 = test: NCI one-dose screen (SRB); assay type: cell-based, human; conditions: SK-MEL-28, Melanoma; 10 µM single dose
Method: as §1, §2, §3

SNB-19 [2] = test: NCI one-dose screen (SRB); assay type: cell-based, human; conditions: SNB-19, CNS cancer; 10 µM single dose
Method: as §1, §2, §3

NCI-H226 = test: NCI one-dose screen (SRB); assay type: cell-based, human; conditions: NCI-H226, NSCLC; 10 µM single dose
Method: as §1, §2, §3

SW-620 = test: NCI one-dose screen (SRB); assay type: cell-based, human; conditions: SW-620, Colon cancer; 10 µM single dose
Method: as §1, §2, §3

SN12C = test: NCI one-dose screen (SRB); assay type: cell-based, human; conditions: Renal cancer, 10 µM single dose
Method: as §1, §2, §3

HCT-116 = test: NCI one-dose screen (SRB); assay type: cell-based, human; conditions: HCT-116, Colon cancer; 10 µM single dose
Method: as §1, §2, §3

UACC-62 = test: NCI one-dose screen (SRB); assay type: cell-based, human; conditions: UACC-62, Melanoma; 10 µM single dose
Method: as §1, §2, §3

EKVX = test: NCI one-dose screen (SRB); assay type: cell-based, human; conditions: NSCLC, 10 µM single dose
Method: as §1, §2, §3

NCI/ADR-RES = test: NCI one-dose screen (SRB); assay type: cell-based, human; conditions: Ovarian cancer, 10 µM single dose
Method: as §1, §2, §3

COLO 205 = test: NCI one-dose screen (SRB); assay type: cell-based, human; conditions: COLO 205, Colon cancer; 10 µM single dose
Method: as §1, §2, §3

HS 578 T = test: NCI one-dose screen (SRB); assay type: cell-based, human; conditions: Breast cancer, 10 µM single dose
Method: as §1, §2, §3

M14 = test: NCI one-dose screen (SRB); assay type: cell-based, human; conditions: M14, Melanoma; 10 µM single dose
Method: as §1, §2, §3

U251 = test: NCI one-dose screen (SRB); assay type: cell-based, human; conditions: U251, CNS cancer; 10 µM single dose
Method: as §1, §2, §3

RPMI-8226 = test: NCI one-dose screen (SRB); assay type: cell-based, human; conditions: RPMI-8226, Leukaemia; 10 µM single dose
Method: as §1, §2, §3

SF-539 = test: NCI one-dose screen (SRB); assay type: cell-based, human; conditions: SF-539, CNS cancer; 10 µM single dose
Method: as §1, §2, §3

MOLT-4 = test: NCI one-dose screen (SRB); assay type: cell-based, human; conditions: MOLT-4, Leukaemia; 10 µM single dose
Method: as §1, §2, §3

OVCAR-4 = test: NCI one-dose screen (SRB); assay type: cell-based, human; conditions: OVCAR-4, Ovarian cancer; 10 µM single dose
Method: as §1, §2, §3

NCI-H23 = test: NCI one-dose screen (SRB); assay type: cell-based, human; conditions: NCI-H23, NSCLC; 10 µM single dose
Method: as §1, §2, §3

MDA-MB-468 = test: NCI one-dose screen (SRB); assay type: cell-based, human; conditions: MDA-MB-468, Breast; 10 µM single dose
Method: as §1, §2, §3

OVCAR-3 = test: NCI one-dose screen (SRB); assay type: cell-based, human; conditions: OVCAR-3, Ovarian; 10 µM single dose
Method: as §1, §2, §3

OVCAR-3 (Ovarian Cancer) = test: MTT cytotoxicity assay; assay type: cell-based, human; conditions: for IC50: OVCAR-3, MTT, 48 h, mean ± SD from triplicates
Method: The MTT assay was carried out according to the procedure cited earlier. Briefly, in a 96-well plate, either cancer or normal cells were seeded (10^6 cells/cm^2; 100 µL/well) and incubated for 12 h at 37 °C and CO2 (5%), then serial dilutions of compound 6i were added and incubated for 48 h using DMSO control (0.5% V/V). MTT (3-(4,5-dimethylthiazoyl)-2,5-diphenyl-tetrazolium bromide; Cat. No. M-5655) 5 mg/mL was then added. After 4 h incubation, the formed MTT formazan crystals were solubilised by 10% Triton X-100 plus 0.1 N HCl in anhydrous isopropanol. The absorbance was read using a Bioline plate reader at λ570–630 nm[25–29]. The selectivity of 6i towards HSF cells was also determined as follows[30]^,[31]: SI=IC50HSF cells/IC50of cancer cells

CCOC(=O)CC[C@H](NC(=O)c1ccc(NC(=O)Cn2cnc3c(c(C)nn3-c3ccc(Br)cc3)c2=O)cc1)C(=O)OCC [Compound 6i]
TGI (UACC-257): >100 µM | TGI (SNB-19 [1]): 27.3 µM | TGI (CCRF-CEM): >100 µM | GI% (BT-549): 66.64% | GI% (HOP-92): 78.29% | L% (lethality) (RXF 393): 22.73% | GI% (SK-MEL-28): 75.54% | GI% (SNB-19 [2]): 61.23% | L% (lethality) (NCI-H226): 37.32% | GI% (SW-620): 62.17% | GI% (SN12C): 57.69% | GI% (HCT-116): 70.04% | GI% (UACC-62): 63.82% | GI% (EKVX): 78.12% | GI% (NCI/ADR-RES): 51.78% | GI% (COLO 205): 71.69% | GI% (HS 578 T): 75.80% | GI% (M14): 74.15% | GI% (U251): 53.30% | GI% (RPMI-8226): 53.52% | GI% (SF-539): 54.23% | GI% (MOLT-4): 52.51% | GI% (OVCAR-4): 66.09% | GI% (NCI-H23): 87.19% | GI% (MDA-MB-468): 92.44% | GI% (OVCAR-3): 96.83% | IC50 (OVCAR-3 (Ovarian Cancer); Homo sapiens, OVCAR-3, 48 h): 11.5 µM | Selectivity index (OVCAR-3 (Ovarian Cancer); IC50 HSF cells / IC50 OVCAR-3): 4.21 | IC50 (OVCAR-3 (Ovarian Cancer)): 11.5 ± 0.58 µM
